Experimental data published in US20260274814A1, “THIENYL COMPOUNDS FOR THE TREATMENT OF A CENTRAL NERVOUS SYSTEM DISEASE OR DISORDER” (Coreterra Therapeutics, Inc., priority 2023, published 2026).
Structures can show the parent of a compound that is named as a salt. Where two headings read alike, the source gives them in different places.

Tested on: mice
Assay: Neuropharmacological Assay (SmartCube): automated behavioral signature of compound-treated mice compared with a database of reference drug classes
Assay type: in vivo
Details: for minimal effective dose: Mus musculus, ip, read-out: MED; for minimal effective dose / MED: minimal effective dose: dose having 45% or more total activity in SmartCube, i.p., that dose is shown
How it was run: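 Compounds in N-methyl-2-pyrrolidone/polyethylene glycol/propylene glycol were given i.p. 15 min before testing, at 3 doses; values shown are for 3.0 mg/kg. Video-captured behaviour was matched by algorithm against reference drug classes, giving a probability per class. MED: lowest dose reaching ≥45% total activity.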

[1] = SmartCube class probability, 3.0 mg/kg i.p., 15 min before test
[2] = SmartCube class probability, 3.0 mg/kg i.p., 15 min before test, 3 mg/kg
[3] = SmartCube probability class, 3.0 mg/kg dose, i.p. 15 min before the behavioral test

## NC1CCc2sc(Cl)c(Cl)c2C1 (stereo not drawn) [Compound 219, 2,3-dichloro-4,5,6,7-tetrahydrobenzothiophen-5-amine hydrochloride]
If only one dose tested
  minimal effective dose: > 3 mg/kg
[1]
  AD: ND (^ <4%)
  AG: ND (^ <4%)
  AN: ND (^ <4%)
  AP: ND (^ <4%)
  AX: ND (^ <4%)
  CE: ND (^ <4%)
  HL: ND (^ <4%)
  MS: ND (^ <4%)
  PS: ND (^ <4%)
  SH: ND (^ <4%)
  UK: ++ (≥24%)

## CNC1CCc2sc(Cl)c(Cl)c2C1 (stereo not drawn) [Compound 220, 2,3-dichloro-N-methyl-4,5,6,7-tetrahydrobenzothiophen-5-amine hydrochloride]
If only one dose tested
  minimal effective dose: > 3 mg/kg
[1]
  AD: ND (^ <4%)
  AG: ND (^ <4%)
  AN: ND (^ <4%)
  AP: ND (^ <4%)
  AX: ND (^ <4%)
  CE: ND (^ <4%)
  HL: ND (^ <4%)
  MS: ND (^ <4%)
  PS: ND (^ <4%)
  SH: ND (^ <4%)
  UK: ++ (≥24%)

## NC1COc2c(C(F)(F)F)csc2C1 (stereo not drawn) [Compound 221, 3-(trifluoromethyl)-6,7-dihydro-5H-thieno[3,2-b]pyran-6-amine hydrochloride]
If only one dose tested
  minimal effective dose: 3 mg/kg
[1]
  AD: ND (^ <4%)
  AG: ND (^ <4%)
  AN: + (≥4%)
  AP: ND (^ <4%)
  AX: ++ (≥24%)
  CE: ND (^ <4%)
  HL: + (≥4%)
  MS: ND (^ <4%)
  PS: ND (^ <4%)
  SH: ND (^ <4%)
  UK: ++ (≥24%)

## CNC1COc2c(Cl)csc2C1 (stereo not drawn) [Compound 222, 3-chloro-N-methyl-6,7-dihydro-5H-thieno[3,2-b]pyran-6-amine hydrochloride]
If only one dose tested
  minimal effective dose: < 3 mg/kg
[1]
  AD: ND (^ <4%)
  AG: ND (^ <4%)
  AN: ND (^ <4%)
  AP: ++++ (≥74%)
  AX: ND (^ <4%)
  CE: ND (^ <4%)
  HL: ND (^ <4%)
  MS: ND (^ <4%)
  PS: ND (^ <4%)
  SH: ND (^ <4%)
  UK: ND (^ <4%)

## CNC1COc2c(F)csc2C1 (stereo not drawn) [Compound 225, 3-fluoro-N-methyl-6,7-dihydro-5H-thieno[3,2-b]pyran-6-amine hydrochloride]
If only one dose tested
  minimal effective dose: < 3 mg/kg
[1]
  AD: ND (^ <4%)
  AG: ND (^ <4%)
  AN: ND (^ <4%)
  AP: ++++ (≥74%)
  AX: ND (^ <4%)
  CE: ND (^ <4%)
  HL: ND (^ <4%)
  MS: ND (^ <4%)
  PS: ND (^ <4%)
  SH: ND (^ <4%)
  UK: ND (^ <4%)

## Cc1csc2c1OCC(N)C2 (stereo not drawn) [Compound 228, 3-methyl-6,7-dihydro-5H-thieno[3,2-b]pyran-6-amine hydrochloride]
If only one dose tested
  minimal effective dose: 1 mg/kg
[1]
  AD: ND (^ <4%)
  AG: ND (^ <4%)
  AN: ND (^ <4%)
  AP: ND (^ <4%)
  AX: ND (^ <4%)
  CE: ND (^ <4%)
  HL: ND (^ <4%)
  MS: ND (^ <4%)
  PS: ND (^ <4%)
  SH: ND (^ <4%)
  UK: ND (^ <4%)

## NC1COc2c(C3CC3)csc2C1 (stereo not drawn) [Compound 229, 3-cyclopropyl-6,7-dihydro-5H-thieno[3,2-b]pyran-6-amine hydrochloride]
If only one dose tested
  minimal effective dose: 3 mg/kg
[1]
  AG: ND (^ <4%)
  AN: ND (^ <4%)
  AP: ND (^ <4%)
  AX: ++++ (≥74%)
  CE: ND (^ <4%)
  HL: + (≥4%)
  MS: ND (^ <4%)
  PS: ND (^ <4%)
  SH: ND (^ <4%)
  UK: ND (^ <4%)

## CNC1COc2sccc2C1 (stereo not drawn) [Compound 234, N-methyl-3,4-dihydro-2H-thieno[2,3-b]pyran-3-amine hydrochloride]
If only one dose tested
  minimal effective dose: 1 mg/kg
[1]
  AD: ND (^ <4%)
  AG: ND (^ <4%)
  AN: ND (^ <4%)
  AP: ++++ (≥74%)
  AX: + (≥4%)
  CE: ND (^ <4%)
  HL: ND (^ <4%)
  MS: ND (^ <4%)
  PS: ND (^ <4%)
  SH: ND (^ <4%)
  UK: ND (^ <4%)

## CNC1COc2c(C3CC3)csc2C1 (stereo not drawn) [Compound 235, 3-cyclopropyl-N-methyl-6,7-dihydro-5H-thieno[3,2-b]pyran-6-amine hydrochloride]
If only one dose tested
  minimal effective dose: 3 mg/kg
[1]
  AD: ++++ (≥74%)
  AG: ND (^ <4%)
  AN: ND (^ <4%)
  AP: ND (^ <4%)
  AX: ND (^ <4%)
  CE: ND (^ <4%)
  HL: ND (^ <4%)
  MS: ND (^ <4%)
  PS: ND (^ <4%)
  SH: ND (^ <4%)
  UK: ND (^ <4%)

## CNC1(C)COc2c(C)csc2C1.Cl (stereo not drawn) [Compound 239, N, 3,6-trimethyl-6,7-dihydro-5H-thieno[3,2-b]pyran-6-amine hydroachloride]
[1]
  AG: ND (^ <4%)
  AN: ND (^ <4%)
  AP: ND (^ <4%)
  AX: ND (^ <4%)
  CE: ND (^ <4%)
  HL: ND (^ <4%)
  MS: ND (^ <4%)
  PS: ND (^ <4%)
  SH: ND (^ <4%)
[2]
  AD: ND (^ <4%)
  UK: ++ (≥24%)
If only one dose tested
  MED: >3 mpk

## CNC1(C)COc2c(C)csc2C1.Cl (stereo not drawn) [Compound 240, N, 3,6-trimethyl-6,7-dihydro-5H-thieno[3,2-b]pyran-6-amine hydroachloride]
[1]
  AG: ND (^ <4%)
  AN: ND (^ <4%)
  AP: ND (^ <4%)
  AX: ND (^ <4%)
  CE: ND (^ <4%)
  HL: ND (^ <4%)
  MS: ND (^ <4%)
  PS: ND (^ <4%)
  SH: ND (^ <4%)
[2]
  AD: + (≥4%)
  UK: +++ (≥49%)
If only one dose tested
  MED: 3 mpk

## CNC1COc2c(C)csc2C1 (stereo not drawn) [Compound 247, N, 3-dimethyl-6,7-dihydro-5H-thieno[3,2-b]pyran-6-amine hydrochloride]
If only one dose tested
  minimal effective dose: 3 mg/kg
[1]
  AD: ND (^ <4%)
  AG: ND (^ <4%)
  AN: ND (^ <4%)
  AP: ++++ (≥74%)
  AX: ND (^ <4%)
  CE: ND (^ <4%)
  HL: ND (^ <4%)
  MS: ND (^ <4%)
  PS: ND (^ <4%)
  SH: ND (^ <4%)
  UK: ND (^ <4%)

## CNC1COc2c(C(F)(F)F)csc2C1 (stereo not drawn) [Compound 248, N-methyl-3-(trifluoromethyl)-6,7-dihydro-5H-thieno[3,2-b]pyran-6-amine hydrochloride]
If only one dose tested
  minimal effective dose: 1 mg/kg
[1]
  AD: +++ (≥49%)
  AN: ND (^ <4%)
  AP: ND (^ <4%)
  AX: ND (^ <4%)
  CE: ND (^ <4%)
  HL: ND (^ <4%)
  MS: ND (^ <4%)
  PS: ND (^ <4%)
  SH: ND (^ <4%)
  UK: ND (^ <4%)

## CNC1COc2c(csc2C(F)(F)F)C1 (stereo not drawn) [Compound 260, N-methyl-7-(trifluoromethyl)-3,4-dihydro-2H-thieno[3,4-b]pyran-3-amine hydrochloride]
If only one dose tested
  minimal effective dose: 3 mg/kg
[1]
  AD: + (≥4%)
  AG: ND (^ <4%)
  AN: ND (^ <4%)
  AP: ND (^ <4%)
  AX: ND (^ <4%)
  CE: ND (^ <4%)
  HL: ND (^ <4%)
  MS: ND (^ <4%)
  PS: ND (^ <4%)
  SH: ND (^ <4%)
  UK: +++ (≥49%)

## CNC1(C)COc2ccsc2C1 (stereo not drawn) [Compound 266, N, 6-dimethyl-5,7-dihydrothieno[3,2-b]pyran-6-amine formate salt]
If only one dose tested
  minimal effective dose: > 3 mg/kg
[1]
  AD: ND (^ <4%)
  AG: ND (^ <4%)
  AN: ND (^ <4%)
  AP: ND (^ <4%)
  AX: ND (^ <4%)
  CE: ND (^ <4%)
  MS: ND (^ <4%)
  PS: ND (^ <4%)
  SH: ND (^ <4%)
  UK: + (≥4%)

## CNC1(C)COc2cc(C)sc2C1 (stereo not drawn) [Compound 285, N, 2,6-trimethyl-5,7-dihydrothieno[3,2-b]pyran-6-amine hydrochloride]
If only one dose was tested
  minimal effective dose: 3 mg/kg
[3]
  AD: ND (^ <4%)
  AG: ND (^ <4%)
  AN: ND (^ <4%)
  AP: ND (^ <4%)
  AX: ND (^ <4%)
  CE: ND (^ <4%)
  HL: ND (^ <4%)
  MS: ND (^ <4%)
  PS: ND (^ <4%)
  SH: ND (^ <4%)
  UK: +++ (≥49%)

## CNC1COc2scc(C)c2C1 (stereo not drawn) [Compound 308, N, 5-dimethyl-3,4-dihydro-2H-thieno[2,3-b]pyran-3-amine hydrochloride]
If only one dose was tested
  minimal effective dose: < 3 mg/kg
[3]
  AD: ND (^ <4%)
  AG: ND (^ <4%)
  AN: ND (^ <4%)
  AP: ++++ (≥74%)
  AX: ND (^ <4%)
  CE: ND (^ <4%)
  HL: ND (^ <4%)
  MS: ND (^ <4%)
  PS: ND (^ <4%)
  SH: ND (^ <4%)
  UK: ND (^ <4%)
